This is an account of results in patent publication US20100173943A1, “INSECTICIDAL COMPOSITIONS WITH IMPROVED ACTION” (BAYER CROPSCIENCE AG, priority 2007, published 2010).

The subject of test [1] is green peach aphid (Myzus persicae). The test can be described thus: Myzus persicae test (MYZUPE). Format: in vivo. To be noted: for pest or weed control at 4 ppm: 4 ppm a.i. alone. Here is the method:
Myzus persicae Test (MYZUPE)
(§1) Solvent: 7 parts by weight of dimethylformamide
(§2) Emulsifier: 2 parts by weight of alkylaryl polyglycol ether
To prepare an appropriate active ingredient formulation, 1 part by weight of active ingredient is mixed with the given amounts of solvent and emulsifier, and the concentrate is diluted with emulsifier-containing water to the desired concentration. In the case that addition of ammonium salts, penetrants, or ammonium salts and penetrants is required, they are pippetted in each case into the finished preparation solution after dilution in a concentration of 1000 ppm each.
Pepper plants (Capsicum annuum) highly infested by the green peach aphid (Myzus persicaei) are treated by spraying with the active ingredient formulation in the desired concentration.
After the desired time, the kill rate in % is determined. 100% means that all animals have been killed; 0% means that no animals have been killed.

For test [2], the system named is cotton aphid (Aphis gossypii). The test can be described thus: Aphis gossypii test (APHIGO spray treatment). Conditions: for pest or weed control at 4 ppm: 4 ppm a.i. alone. Format: in vivo. Here is the method: Aphis gossypii Test (APHIGO Spray Treatment)
as §1, §2
To prepare a ready-to-use active ingredient formulation, 1 part by weight of active ingredient is mixed with the specified amounts of solvent and emulsifier and the concentrate is diluted with emulsifier-containing water to the desired concentration. In the case that addition of ammonium salts, penetrants, or ammonium salts and penetrants is required, they are pipetted in each case into the finished preparation solution after dilution in a concentration of 1000 ppm each.
Cotton leaves (Gossypium hirsutum) highly infested by the cotton aphid (Aphis gossypii) are sprayed with an active ingredient formulation with the desired concentration.
After the desired period, the kill rate in % is determined. 100% means that all aphids have been killed; 0% means that no aphids have been killed.

Setting [3] is: 0.8 ppm a.i. + AMS and RME 1000 ppm each, pepper plants sprayed, 6 days.
Setting [4] is: 0.8 ppm a.i. + ammonium sulphate 1000 ppm, pepper plants sprayed, 6 days.
[5] abbreviates: 0.8 ppm a.i. + rapeseed oil methyl ester 1000 ppm, pepper plants sprayed, 6 days.
Setting [6] is: 4 ppm a.i. + AMS and RME 1000 ppm each, pepper plants sprayed, 6 days.
Where [7] appears, read: 4 ppm a.i. + ammonium sulphate 1000 ppm, pepper plants sprayed, 6 days.
Where [8] appears, read: 4 ppm a.i. + rapeseed oil methyl ester 1000 ppm, pepper plants sprayed, 6 days.
[9] abbreviates: Myzus persicae, 144 h, 0.8 ppm a.i. alone, pepper plants sprayed, 6 days, read-out: Kill in % after 6 days a.i.
Where [10] appears, read: Myzus persicae, 144 h, pepper plants sprayed, 6 days, read-out: Kill in % after 6 days a.i.
The mark [11] stands for this setting: 0.8 ppm a.i. + AMS and RME 1000 ppm each, cotton leaves sprayed, 6 days.
Where [12] appears, read: 0.8 ppm a.i. + ammonium sulphate 1000 ppm, cotton leaves sprayed, 6 days.
Setting [13] is: 0.8 ppm a.i. + rapeseed oil methyl ester 1000 ppm, cotton leaves sprayed, 6 days.
Where [14] appears, read: Aphis gossypii, 144 h, 0.8 ppm a.i. alone, cotton leaves sprayed, 6 days, read-out: Kill in % after 6 days a.i.
Setting [15] is: 4 ppm a.i. + AMS and RME 1000 ppm each, cotton leaves sprayed, 6 days.
Setting [16] is: 4 ppm a.i. + ammonium sulphate 1000 ppm, cotton leaves sprayed, 6 days.
[17] abbreviates: 4 ppm a.i. + rapeseed oil methyl ester 1000 ppm, cotton leaves sprayed, 6 days.
The mark [18] stands for this setting: Aphis gossypii, 144 h, cotton leaves sprayed, 6 days, read-out: Kill in % after 6 days a.i.

Read-outs that look alike come from different tables or passages of the source.

`O=C1C=C(N(CCF)Cc2ccc(Br)nc2)CO1` [Compound I-1, 4-{[(6-bromopyrid-3-yl)methyl](2-fluoroethyl)amino}furan-2(5H)-one]: the entries for the “Kill in % after 6 days +AMS + RME” value in test [1] (setting [3]), in test [1] (setting [6]) and in test [2] (setting [11]) were 35%, 99% and 95%, respectively. In addition, the “Kill in % after 6 days +AMS” value in test [1] (setting [4]) is 0%; in test [1] (setting [7]), 95%; in test [2] (setting [12]), 20%. The “Kill in % after 6 days +RME” value in test [1] (setting [5]) is on record as 25%; in test [1] (setting [8]), 99%; in test [2] (setting [13]), 50%. Also, the figures for the pest or weed control at 0.8 ppm in test [1] (setting [9]) and in test [2] (setting [14]) were 0% and 25%, respectively. In addition, the pest or weed control at 4 ppm in test [1] (setting [10]) is 35%.
Regarding `O=C1C=C(N(Cc2ccc(Br)nc2)CC(F)F)CO1` [Compound I-2], the “Kill in % after 6 days +AMS + RME” value in test [1] (setting [3]) was found to be 30%; in test [2] (setting [11]), 15%. The figures for the “Kill in % after 6 days +AMS” value in test [1] (setting [4]) and in test [2] (setting [12]) were 50% and 98%, respectively. Also, the “Kill in % after 6 days +RME” value in test [1] (setting [5]) is on record as 98%; in test [2] (setting [13]), 90%. The pest or weed control at 0.8 ppm was 0% in test [1] (setting [9]) and 15% in test [2] (setting [14]).
Consider `O=C1C=C(N(Cc2ccc(F)nc2)CC(F)F)CO1` [Compound I-3, 4-{[(6-fluoropyrid-3-yl)methyl](2,2-difluoroethyl)amino}furan-2(5H)-one], for which the “Kill in % after 6 days +AMS + RME” value in test [1] (setting [6]) is recorded as 100%; in test [2] (setting [11]), 90%. The “Kill in % after 6 days +AMS” value in test [1] (setting [7]) is recorded as 80%; in test [2] (setting [12]), 15%. The entries for the “Kill in % after 6 days +RME” value in test [1] (setting [8]) and in test [2] (setting [13]) were 85% and 35%, respectively. For the same molecule, the pest or weed control at 4 ppm in test [1] (setting [10]) is 0%. In addition, the pest or weed control at 0.8 ppm in test [2] (setting [14]) was 0%.
Consider `O=C1C=C(N(CCF)Cc2cnc(Cl)s2)CO1` [Compound I-4, 4-{[(2-chloro-1,3-thiazol-5-yl)methyl](2-fluoroethyl)amino}furan-2(5H)-one], for which the “Kill in % after 6 days +AMS + RME” value turned out to be 100% in test [1] (setting [6]) and 85% in test [2] (setting [15]). Further, the “Kill in % after 6 days +AMS” value in test [1] (setting [7]) was 80%; in test [2] (setting [16]) it was 20%. The entries for the “Kill in % after 6 days +RME” value in test [1] (setting [8]) and in test [2] (setting [17]) were 90% and 65%, respectively. Besides, the pest or weed control at 4 ppm stood at 15% in test [1] (setting [10]) and 20% in test [2] (setting [18]).
In the case of `O=C1C=C(N(CCF)Cc2ccc(Cl)nc2)CO1` [Compound I-6, 4-{[(6-chloropyrid-3-yl)methyl](2-fluoroethyl)amino}furan-2(5H)-one], the “Kill in % after 6 days +AMS + RME” value in test [1] (setting [6]) stood at 100%; in test [2] (0.16 ppm a.i. + AMS and RME 1000 ppm each, cotton leaves sprayed, 6 days), 40%; in test [2] (setting [11]), 70%. Also, the “Kill in % after 6 days +AMS” value is listed as 85% in test [1] (setting [7]); 0% in test [2] (0.16 ppm a.i. + ammonium sulphate 1000 ppm, cotton leaves sprayed, 6 days); 55% in test [2] (setting [12]). The “Kill in % after 6 days +RME” value in test [1] (setting [8]) is listed as 100%; in test [2] (0.16 ppm a.i. + rapeseed oil methyl ester 1000 ppm, cotton leaves sprayed, 6 days), 25%; in test [2] (setting [13]), 80%. Moreover, the pest or weed control at 4 ppm in test [1] (setting [10]) is 60%. In test [2] (Aphis gossypii, 144 h, 0.16 ppm a.i. alone, cotton leaves sprayed, 6 days, read-out: Kill in % after 6 days a.i.), the pest or weed control at 0.16 ppm came out at 0%. For the same molecule, in test [2] (setting [14]), the pest or weed control at 0.8 ppm stood at 45%.
As for `O=C1C=C(N(Cc2ccc(Cl)nc2)CC(F)F)CO1` [Compound I-7, 4-{[(6-chloropyrid-3-yl)methyl](2,2-difluoroethyl)amino}furan-2(5H)-one], the “Kill in % after 6 days +AMS + RME” value in test [1] (setting [3]) is 90%; in test [2] (setting [11]) it was 80%. In addition, the “Kill in % after 6 days +AMS” value in test [1] (setting [4]) was 45%; in test [2] (setting [12]), 60%. Also, the “Kill in % after 6 days +RME” value in test [1] (setting [5]) is recorded as 80%; in test [2] (setting [13]), 70%. Also, the pest or weed control at 0.8 ppm in test [1] (Myzus persicae, 144 h, read-out: Kill in % after 6 days a.i.) was determined as 55%; in test [2] (Aphis gossypii, 144 h, read-out: Kill in % after 6 days a.i.), 60%.
In the case of `CN(Cc1cnc(Cl)c(F)c1)C1=CC(=O)OC1` [Compound I-8, 4-{[(6-chloro-5-fluoropyrid-3-yl)methyl](methyl)amino}furan-2(5H)-one], the “Kill in % after 6 days +AMS + RME” value in test [1] (setting [3]) was 95%; in test [2] (setting [11]), 75%. Also, the “Kill in % after 6 days +AMS” value is given as 50% in test [1] (setting [4]) and 30% in test [2] (setting [12]). For the same molecule, the “Kill in % after 6 days +RME” value worked out at 95% in test [1] (setting [5]) and 60% in test [2] (setting [13]). Also, the pest or weed control at 0.8 ppm in test [1] (setting [9]) came out at 40%; in test [2] (setting [14]), 20%.
On to `O=C1C=C(N(Cc2cnc(Cl)c(Cl)c2)C2CC2)CO1` [Compound I-9, 4-{[(5,6-dichloropyrid-3-yl)methyl](cyclopropyl)amino}furan-2(5H)-one], for which the “Kill in % after 6 days +AMS + RME” value in test [1] (setting [6]) is 70%; in test [2] (setting [11]) it was 30%. For the same molecule, the “Kill in % after 6 days +AMS” value in test [1] (setting [7]) is on record as 15%; in test [2] (setting [12]), 0%. Besides, the results for the “Kill in % after 6 days +RME” value in test [1] (setting [8]) and in test [2] (setting [13]) were 60% and 15%, respectively. Further, in test [1] (setting [10]), the pest or weed control at 4 ppm amounted to 0%. Further, in test [2] (setting [14]), the pest or weed control at 0.8 ppm came to 0%.
Take `CN(Cc1cnc(Cl)c(Cl)c1)C1=CC(=O)OC1` [Compound I-10, 4-{[(5,6-dichloropyrid-3-yl)methyl](methyl)amino}furan-2(5H)-one]: the “Kill in % after 6 days +AMS + RME” value in test [1] (setting [3]) and in test [2] (setting [15]) was 99% each time. Besides, the “Kill in % after 6 days +AMS” value in test [1] (setting [4]) came to 0%; in test [2] (setting [16]), 99%. In addition, the figures for the “Kill in % after 6 days +RME” value in test [1] (setting [5]) and in test [2] (setting [17]) were 90% and 85%, respectively. Further, in test [1] (setting [9]), the pest or weed control at 0.8 ppm came to 0%. The pest or weed control at 4 ppm in test [2] (setting [18]) was determined as 65%.
In the case of `CN(Cc1cnc(Br)c(F)c1)C1=CC(=O)OC1` [Compound I-11, 4-{[(6-bromo-5-fluoropyrid-3-yl)methyl](methyl)amino}furan-2(5H)-one], the “Kill in % after 6 days +AMS + RME” value in test [1] (0.16 ppm a.i. + AMS and RME 1000 ppm each, pepper plants sprayed, 6 days) is 90%; in test [1] (setting [3]), 99%; in test [2] (setting [11]) it was 99%. In addition, the “Kill in % after 6 days +AMS” value is 0% in test [1] (0.16 ppm a.i. + ammonium sulphate 1000 ppm, pepper plants sprayed, 6 days); 95% in test [1] (setting [4]); 55% in test [2] (setting [12]). Moreover, the “Kill in % after 6 days +RME” value in test [1] (0.16 ppm a.i. + rapeseed oil methyl ester 1000 ppm, pepper plants sprayed, 6 days) turned out to be 0%; in test [1] (setting [5]) it was 99%; in test [2] (setting [13]) it was 95%. Moreover, the pest or weed control at 0.16 ppm in test [1] (Myzus persicae, 144 h, 0.16 ppm a.i. alone, pepper plants sprayed, 6 days, read-out: Kill in % after 6 days a.i.) is 0%. Besides, the figures for the pest or weed control at 0.8 ppm in test [1] (setting [9]) and in test [2] (setting [14]) were 85% and 15%, respectively.
For `O=C1C=C(N(Cc2cnc(Br)c(F)c2)C2CC2)CO1` [Compound I-12, 4-{[(6-bromo-5-fluoropyrid-3-yl)methyl](cyclopropyl)amino}furan-2(5H)-one], the “Kill in % after 6 days +AMS + RME” value in test [1] (setting [3]) is 45%; in test [1] (setting [6]), 95%; in test [2] (setting [11]), 25%; in test [2] (setting [15]), 75%. Further, the “Kill in % after 6 days +AMS” value in test [1] (setting [4]) stood at 0%; in test [1] (setting [7]), 95%; in test [2] (setting [12]) it was 5%; in test [2] (setting [16]), 80%. Also, the “Kill in % after 6 days +RME” value in test [1] (setting [5]) was found to be 10%; in test [1] (setting [8]), 100%; in test [2] (setting [13]), 10%; in test [2] (setting [17]), 85%. In addition, the pest or weed control at 0.8 ppm in test [1] (setting [9]) came out at 5%; in test [2] (setting [14]), 0%. Further, the figures for the pest or weed control at 4 ppm in test [1] (setting [10]) and in test [2] (setting [18]) were 85% and 55%, respectively.
